What all share (assay type): binding
The target in one experiment is HLA-B*07:02 (Homo sapiens, UniProt P01889). To be noted: percent relative the binding of positive control peptide […]; duplicated experiments; positive binder >40%.
The next experiment has as its target HLA-A*30:01 (Homo sapiens, UniProt P04439, D140H/D185E/E176W/F33S/G80R/H175R/K168Q/R138E/R41S). To be noted: percent relative the binding of positive control peptide […]; duplicated experiments; positive binder >40%.
The target in the next experiment is HLA-A*68:01 (Homo sapiens, UniProt P04439, A269V/D185E/E176V/E277Q/E87N/F33Y/G231S/I121M/I166T/I218V/L180W/L300P/L318F/N151K/P208A/P217A/Q86R/R169H/T345S). To be noted: percent relative the binding of positive control peptide […]; duplicated experiments; positive binder >40%.
In another experiment the target is HLA-A*02:01 (Homo sapiens, UniProt P04439, D140Y/D185E/D98H/E176V/E277Q/G131W/G231S/I119V/I121R/I166T/I218V/L300P/L318F/N151K/N90K/P208A/P217A/Q86G/Q94H/R138H/R169H/T345S). Particulars: percent relative the binding of positive control peptide […]; plate-bound monomer 0.5 µg/ml; duplicated experiments; positive binder >40%.
The next experiment concerns the target HLA-C*07:01 (Homo sapiens, UniProt P10321, K90N/S123Y). To be noted: percent relative the binding of positive control peptide […]; duplicated experiments; positive binder >40%.
The next experiment concerns the target HLA-A*30:02 (Homo sapiens, UniProt P04439, D101N/D140H/D185E/E176R/F33S/G80R/H175R/K168Q/Q94H/R138E/R41S/V100E). To be noted: percent relative the binding of positive control peptide […]; duplicated experiments; positive binder >40%.
Another experiment addresses HLA-A*24:02 (Homo sapiens, UniProt P04439, D101N/D140Y/D185E/E176V/E190D/F33S/G103R/G107R/I119L/I121M/I306V/K335N/L105A/L180Q/L300P/N151K/N90K/Q86E/Q94H/R106L/R138H/R89G/T104I/T345S/V100E/W191G/Y123F). Particulars: percent relative the binding of positive control peptide […]; duplicated experiments; positive binder >40%.
A further experiment deals with HLA-B*58:01 (Homo sapiens, UniProt P01889, A329T/C349S/D201E/D98Y/E176V/E187L/E204Q/E69T/G107R/I218V/I90N/K202T/L105A/L119I/N104I/N87E/Q89R/Q94S/R106L/R155S/R180L/R86G/S101N/S121R/S35A/S48A/T118I/V127L/V306I/V36M/Y140S/Y91M). To be noted: percent relative the binding of positive control peptide […]; duplicated experiments; positive binder >40%.

GKAGCQTYK: on HLA-B*07:02, the “Bind B*07:02” value was determined as 9%. Moreover, on HLA-A*30:01, the “Bind A*30:01” value is 34%. In addition, the “Bind A*68:01” value at HLA-A*68:01 came out at 72%. Also, at HLA-A*02:01, the “Bind A*02:01” value came to 33%. Moreover, the “Bind C*07:01” value on HLA-C*07:01 is given as 0%. The “Bind A*30:02” value at HLA-A*30:02 was 58%. Further, the “Bind A*24:02” value at HLA-A*24:02 is reported as 19%. Besides, the “Bind B*58:01” value on HLA-B*58:01 stood at 22%.

With KGDLQSSLG, the “Bind B*07:02” value at HLA-B*07:02 came out at 6%. Besides, at HLA-A*30:01, the “Bind A*30:01” value is given as 20%. For the same substance, the “Bind A*68:01” value at HLA-A*68:01 was 40%. For the same substance, on HLA-A*02:01, the “Bind A*02:01” value is reported as 10%. At HLA-C*07:01, the “Bind C*07:01” value amounted to 25%. For the same substance, the “Bind A*30:02” value on HLA-A*30:02 was found to be 13%. Also, the “Bind A*24:02” value at HLA-A*24:02 was found to be 4%. On HLA-B*58:01, the “Bind B*58:01” value stood at 0%.

For the substance SPACGKAGC, at HLA-B*07:02, the “Bind B*07:02” value is 77%. For the same substance, the “Bind A*30:01” value on HLA-A*30:01 worked out at 0%. The “Bind A*68:01” value on HLA-A*68:01 is recorded as 0%. Moreover, the “Bind A*02:01” value at HLA-A*02:01 is given as 16%. Further, on HLA-C*07:01, the “Bind C*07:01” value came to 0%. On HLA-A*30:02, the “Bind A*30:02” value came to 0%. The “Bind A*24:02” value on HLA-A*24:02 was determined as 0%. The “Bind B*58:01” value at HLA-B*58:01 was found to be 0%.

Take GNNSPAVYL: the “Bind B*07:02” value at HLA-B*07:02 amounted to 0%. Besides, the “Bind A*30:01” value at HLA-A*30:01 came to 0%. Also, the “Bind A*68:01” value on HLA-A*68:01 is on record as 3%. Further, the “Bind A*02:01” value on HLA-A*02:01 is 0%. The “Bind C*07:01” value on HLA-C*07:01 is recorded as 51%. On HLA-A*30:02, the “Bind A*30:02” value amounted to 0%. Further, the “Bind A*24:02” value on HLA-A*24:02 is 6%. Moreover, the “Bind B*58:01” value on HLA-B*58:01 came to 0%.

As to SW EYW GAQL, the “Bind B*07:02” value at HLA-B*07:02 is 1%. In addition, the “Bind A*30:01” value on HLA-A*30:01 amounted to 0%. Moreover, the “Bind A*68:01” value at HLA-A*68:01 turned out to be 0%. For the same substance, the “Bind A*02:01” value on HLA-A*02:01 was found to be 31%. Besides, on HLA-C*07:01, the “Bind C*07:01” value is listed as 0%. In addition, on HLA-A*30:02, the “Bind A*30:02” value stood at 0%. In addition, the “Bind A*24:02” value at HLA-A*24:02 is reported as 79%. Further, the “Bind B*58:01” value on HLA-B*58:01 was 0%.

Regarding IPAEFLENF, the “Bind B*07:02” value at HLA-B*07:02 worked out at 47%. Further, on HLA-A*30:01, the “Bind A*30:01” value was 0%. Also, the “Bind A*68:01” value on HLA-A*68:01 came out at 0%. The “Bind A*02:01” value on HLA-A*02:01 is on record as 17%. Further, at HLA-C*07:01, the “Bind C*07:01” value was 2%. Further, the “Bind A*30:02” value on HLA-A*30:02 amounted to 0%. Besides, the “Bind A*24:02” value at HLA-A*24:02 amounted to 48%. For the same substance, the “Bind B*58:01” value on HLA-B*58:01 is listed as 0%.

As for NAVFNFPPN, on HLA-B*07:02, the “Bind B*07:02” value was determined as 5%. On HLA-A*30:01, the “Bind A*30:01” value was found to be 0%. For the same substance, the “Bind A*68:01” value on HLA-A*68:01 is 27%. Further, the “Bind A*02:01” value at HLA-A*02:01 is 24%. The “Bind C*07:01” value on HLA-C*07:01 came to 2%. In addition, on HLA-A*30:02, the “Bind A*30:02” value came to 70%. Besides, the “Bind A*24:02” value on HLA-A*24:02 amounted to 14%. Further, the “Bind B*58:01” value at HLA-B*58:01 is 28%.

Turning to THSWEYWGA, the “Bind B*07:02” value at HLA-B*07:02 is listed as 2%. In addition, the “Bind A*30:01” value on HLA-A*30:01 is 0%. Besides, the “Bind A*68:01” value at HLA-A*68:01 is 57%. The “Bind A*02:01” value at HLA-A*02:01 is recorded as 21%. For the same substance, the “Bind C*07:01” value on HLA-C*07:01 amounted to 6%. Further, at HLA-A*30:02, the “Bind A*30:02” value came out at 67%. The “Bind A*24:02” value on HLA-A*24:02 is reported as 0%. Also, the “Bind B*58:01” value at HLA-B*58:01 turned out to be 0%.

For the substance LSANRAVKP, at HLA-B*07:02, the “Bind B*07:02” value stood at 11%. For the same substance, the “Bind A*30:01” value at HLA-A*30:01 came out at 49%. On HLA-A*68:01, the “Bind A*68:01” value was 0%. Besides, the “Bind A*02:01” value on HLA-A*02:01 is on record as 17%. The “Bind C*07:01” value at HLA-C*07:01 is on record as 24%. Further, the “Bind A*30:02” value at HLA-A*30:02 was found to be 15%. The “Bind A*24:02” value on HLA-A*24:02 is listed as 27%. Further, the “Bind B*58:01” value at HLA-B*58:01 is 0%.

Regarding QQIPKLVAN, the “Bind B*07:02” value on HLA-B*07:02 stood at 2%. Further, on HLA-A*30:01, the “Bind A*30:01” value is listed as 10%. Also, the “Bind A*68:01” value on HLA-A*68:01 was found to be 2%. The “Bind A*02:01” value on HLA-A*02:01 came to 36%. The “Bind C*07:01” value on HLA-C*07:01 amounted to 15%. The “Bind A*30:02” value at HLA-A*30:02 came to 60%. Further, on HLA-A*24:02, the “Bind A*24:02” value is listed as 0%. In addition, on HLA-B*58:01, the “Bind B*58:01” value was determined as 16%.

The values above are taken from PMC3608651, “A Broad Profile of Co-Dominant Epitopes Shapes the Peripheral Mycobacterium tuberculosis Specific CD8+ T-Cell Immune Response in South African Patients with Active Tuberculosis” (PLoS ONE, 2013).
